# Measured values: PMC9975698, “Hyperoside alleviates toxicity of β-amyloid via endoplasmic reticulum-mitochondrial calcium signal transduction cascade in APP/PS1 double transgenic Alzheimer's disease mice” (Redox Biology, 2023)
# Tests used:
# Solubility in water = assay type: physicochemical
# APP/PS1 mice = assay: Nissl staining of hippocampus; assay type: in vivo; settings: hippocampus CA3 and DG, vs APP/PS1 control group
# Experimental: All animal care and experimental procedures were performed in accordance with the “Institutional Animal Care and User Committee Guidelines” of the Macau University of Science and Technology. APP/PSEN1 (APP/PS1) mice (N000175) were purchased from the Nanjing Institute of Biomedical Sciences, Nanjing University, China, weighing 25 ± 5 g. The animals were housed in a temperature-controlled room with a 12 h light/dark cycle and given ad libitum food and water. Male mice were randomly divided into the following 6 experimental groups. (a) wild-type group (n = 6), (b) APP/PS1 group (n = 6), (c) HYP (20 mg/kg group) (n = 7), (d) HYP (40 mg/kg) group (n = 8), (e) HYP (80 mg/kg) group (n = 8) and (f) memantine (MEM) (10 mg/kg) positive control group (n = 8). HYP was dissolved in the solvent containing 10% DMSO, 40% PEG300 and 5% Tween-80 in PBS, and administrated via nasal injection for every 3 days with a volume of 0.5 μL/g of body weight for 8 consecutive weeks. The CA1, CA3 and DG regions of the mouse hippocampus was assessed by Nissl staining for Nissl body detection. Brain sections were dehydrated as the same as in HE staining, followed by 1% tar violet staining for 1 h, and with distilled water washing followed by 70% alcohol separation for 1 min. Tissues were then dehydrated in 70%, 80% and 90% of alcohol. […]
# [1] = Pharmacokinetics in brain after IV or IN administration; assay type: in vivo; settings: 20 mg/kg, mice; for Tmax / k el / half-life: mouse, brain; for k el: read-out: Brain Ke (converted); for half-life: read-out: Brain t1/2 (converted)
# Experimental: (§1) After tail vein injection or nasal administration, blood was collected at 5, 15 and 30 min, 1, 2, 4, 8, 12, 24, 48, 72, 120 and 168 h, for immediate centrifugation at 14,000 rpm for 5 min. The serum was harvested and stored at −20 °C until further processing. Brain tissue was collected and was thoroughly rinsed in saline to eliminate blood and blotted dry with filter paper. Each tissue sample was homogenized in saline (1:5, w/v) and stored at −20 °C until analysis. 50 μL of serum or 100 μL of brain tissue was put in a 1.5 mL EP tube, followed by the addition of 20 μL of internal standard solution (10 μM ISO). The protein was precipitated with 1 mL of ethyl acetate, vortexed for 5 min and centrifuged at 20,000 g (4 °C and 10 min). The supernatant solution was nitrogen blown to dry and re-suspended with 100 μL of 50% acetonitrile for centrifugation again. The supernatant was taken for analysis by using LC-MS/MS. HYP content was quantified using UHPLC-MS/MS system, which includes Agilent 1290 Infinity UHPLC, and Agilent 6460 Triple Quadrupole, equipped with an electrospray ionization interface used to generate positive ions for the determination of HYP. The compounds were analyzed by using the Agilent Zorbax Eclipse Plus C-18 column with a particle size of […] (flow rate: 0.35 mL/min). The mobile phase was set as follows: mobile phase A (0.1% formic acid in water) and mobile phase B (0.1% formic acid in ACN): 0–3 min, 10–30% B; 3–4 min, 70% B; 4–5 min, 30–70% B; 5–6 min, 70-10% B. The column and auto-sampler temperature were maintained at 30 °C and 4 °C, respectively. Data were analyzed by using Agilent MassHunter Workstation software B.01.03. The gas temperature was set at 300 °C with a flow rate of 11 L/min. Gases were set at 30 psi for the nebulizer, capillary, at 4000 V. For the HYP, the fragment was 170. The collision energy was set at 30; The mass transitions were as follows based on multiple reaction monitoring: m/z 464.38 → 299.9. For the Isorhamnetin (ISO), the fragment was 150. The collision energy was set at 30; The mass transitions were as follows based on multiple reaction monitoring: m/z 315.4 → 300.1, The measurements of HYP were done using the standard and linear least-squares regression curve.
# [2] = Pharmacokinetics in serum after IV or IN administration; assay type: in vivo; settings: 20 mg/kg, mice; for AUC(0-t) / Cmax / Tmax / k el / half-life: mouse, serum; for k el: read-out: Serum Ke (converted); for half-life: read-out: Serum t1/2 (converted)
# Experimental: as §1
# HT22 cells = assay: Cell membrane permeability assay (intracellular HYP by LC-MS/MS); assay type: in vitro ADME; settings: HYP 20–80 μM, 24 h
# Experimental: HT22 cells were co-treated with Aβ aggregates and HYP (20–80 μM) for 24 h and washed with PBS for 3 times. The cell membrane was disrupted with 200 μL methanol for the collection and centrifugation of cellular content at 20,000 rpm for 10 min. The supernatant was then collected for LC-MS/MS analysis. HYP content was quantified using UHPLC-MS/MS system, which includes Agilent 1290 Infinity UHPLC, and Agilent 6460 Triple Quadrupole, equipped with an electrospray ionization interface used to generate positive ions for the determination of HYP. The compounds were analyzed by using the Agilent Zorbax Eclipse Plus C-18 column with a particle size of […] (flow rate: 0.35 mL/min). The mobile phase was set as follows: mobile phase A (0.1% formic acid in water) and mobile phase B (0.1% formic acid in ACN): 0–3 min, 10–30% B; 3–4 min, 70% B; 4–5 min, 30–70% B; 5–6 min, 70-10% B. The column and auto-sampler temperature were maintained at 30 °C and 4 °C, respectively. Data were analyzed by using Agilent MassHunter Workstation software B.01.03. The gas temperature was set at 300 °C with a flow rate of 11 L/min. Gases were set at 30 psi for the nebulizer, capillary, at 4000 V. For the HYP, the fragment was 170. The collision energy was set at 30; The mass transitions were as follows based on multiple reaction monitoring: m/z 464.38 → 299.9. For the Isorhamnetin (ISO), the fragment was 150. […]
compound,measurement,setting,value
"O=c1c(O[C@@H]2O[C@H](CO)[C@H](O)[C@H](O)[C@H]2O)c(-c2ccc(O)c(O)c2)oc2cc(O)cc(O)c12 [HYP, Quercetin-3-O-β-D-galactopyranoside]",solubility in water,Solubility in water,insoluble in water
same,density of neuronal cells (Nissl staining),APP/PS1 mice,density of neuronal cells in the CA3 and DG regions was higher
same,Brain Cmax,[1]; IN,12.76 ± 1.56 ng/m
same,Brain F (AUCIN/AUCIV ratio),[1]; IN,603.72%
same,Brain Cmax,[1]; IV,12.82 ± 0.40 ng/mL
same,Tmax,"[1]; inhaled or intranasal, IN",1 h
same,k el,"[1]; inhaled or intranasal, IN",5.56e-06 s⁻¹
same,half-life,"[1]; inhaled or intranasal, IN",70.1 ± 5.04 h
same,Tmax,[1]; IV,2 h
same,k el,[1]; IV,1.94e-05 s⁻¹
same,half-life,[1]; IV,10.5 ± 1.63 h
same,Serum F (AUCIN/AUCIV ratio),[2]; IN,23.2%
same,AUC(0-t),"[2]; inhaled or intranasal, IN",5500 ± 1220 µg·h/mL
same,Cmax,"[2]; inhaled or intranasal, IN",300 ± 102 µg/mL
same,Tmax,"[2]; inhaled or intranasal, IN",0.5 h
same,k el,"[2]; inhaled or intranasal, IN",1.67e-05 s⁻¹
same,half-life,"[2]; inhaled or intranasal, IN",25.6 ± 12.5 h
same,AUC(0-t),[2]; IV,23700 ± 1740 µg·h/mL
same,Cmax,[2]; IV,1160 ± 268 µg/mL
same,Tmax,[2]; IV,0.08 h
same,k el,[2]; IV,0.000103 s⁻¹
same,half-life,[2]; IV,1.85 ± 1.25 h
same,intracellular level of HYP,HT22 cells,increased upon the escalating concentration of HYP
